PubChem BioAssay (NCI)
“And” between values parts separate entries of the source, which are not always exact repeats. Equal values may be shown once.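 Interpolation was linear, between the two tested concentrations surrounding the appropriate level; five concentrations were tested over 48 hours in 96-well plates. GI50 marks 50% less growth. The concentration for full growth arrest is given as TGI.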

Legend:
Assay in all cases: NCI-60 cell line screen, 48 h
[1] = system: M14 melanoma
[2] = system: UO-31 renal
[3] = system: HCT-15 colon
[4] = system: HL-60(TB) leukemia
[5] = system: HOP-92 NSCLC
[6] = system: 786-0 renal
[7] = system: MOLT-4 leukemia
[8] = system: IGROV1 ovarian
[9] = system: UACC-62 melanoma
[10] = system: LOX IMVI melanoma

Row | SMILES | TGI [1] | TGI [2] | TGI [3] | TGI [4] | TGI [5] | TGI [6] | TGI [7] | TGI [8] | TGI [9] | TGI [10] | GI50 [1] | GI50 [2] | GI50 [3] | GI50 [4] | GI50 [5] | GI50 [6] | GI50 [7] | GI50 [8] | GI50 [9] | GI50 [10]
1 | O=C(O)c1ccc(S(=O)(=O)N=Nc2c(O)[nH]c3ccccc23)cc1 | > 100 µM | > 100 µM | > 100 µM | > 100 µM | > 100 µM | > 100 µM | > 100 µM | > 100 µM | > 100 µM | > 100 µM | – | – | – | – | – | – | – | – | – | –
2 | BrC(Br)(Br)c1cnc2ccccc2n1 | 6.42 µM | 2.39 µM | 6.2 µM | 4.16 µM | 3.14 µM | 5 µM | 8.54 µM | 6.8 µM | 6.6 µM | 2.19 µM | 2.05 µM | 0.793 µM | 2.03 µM | 1.97 µM | 1.5 µM | 2.02 µM | 2.46 µM | 2.2 µM | 2.02 µM | 0.425 µM
3 | COc1cccc2c1cc([N+](=O)[O-])c1c(C(=O)O)cc3c(c12)OCO3 | > 100 µM | > 100 µM | > 100 µM and 38.6 µM | > 100 µM and 51.5 µM | 88.3 µM and > 100 µM | > 100 µM | > 100 µM | > 100 µM | > 100 µM | > 100 µM | – | 26.2 µM | 29.1 µM | 35.1 µM | 23.3 µM | 27.6 µM | 40.9 µM | 34.3 µM | – | 26.2 µM
4 | O=C(Nc1cccc(C(F)(F)F)c1)c1cccc(NC2=C(Cl)C(=O)N(Cc3ccccc3)C2=O)c1 | 14.3 µM | > 100 µM | > 100 µM | 28.7 µM | 32.7 µM | > 100 µM | > 100 µM | 18.3 µM | 29.9 µM | 57.5 µM | 3.68 µM | 11.7 µM | 5.1 µM | 5.36 µM | 2.89 µM | 27.4 µM | 2.73 µM | 1.92 µM | 12.1 µM | 3.92 µM
5 | CCCCCCCCCCCCOC1C(C(COC2OC(C(O)CN3CCCCC3)C3OC(C)(C)OC23)NC(=O)Nc2ccccc2)OC2OC(C)(C)OC21 (stereo not drawn) | 19.4 µM | 28.2 µM | 24.3 µM | 11.3 µM | 19.7 µM | 30.5 µM | 5.54 µM | 39.5 µM | 31 µM | 26.1 µM | 7.75 µM | 10.3 µM | 8.6 µM | 3.96 µM | 6.86 µM | 14.1 µM | 1.29 µM | 16.9 µM | 15.9 µM | 7.87 µM
6 | CCN(Cc1nc2cc(C(F)(F)F)ccc2nc1-c1ccccc1)c1ccc(OC)c(OC)c1 | 29.5 µM | 46.2 µM | 34.5 µM | 17.6 µM | 30.4 µM | 30.3 µM | 52.1 µM | 33.7 µM | 27.7 µM | 27.2 µM | 15.4 µM | 19.8 µM | 16.3 µM | 4.46 µM | 15 µM | 15.7 µM | 11.8 µM | 16.8 µM | 14.1 µM | 14.2 µM
7 | Cc1c(C2Cc3ccccc3N2C(=O)/C=C\C(=O)O)c2ccccc2n1C (stereo not drawn) | 76.2 µM | > 100 µM | > 100 µM | 51.6 µM | 36.3 µM | 49.3 µM | 93.3 µM | 70.7 µM | 35.8 µM | 32.6 µM | – | – | – | – | – | – | – | – | – | –
8 | CCCC[P+](c1ccccc1)(c1ccccc1)c1ccccc1 | > 100 µM | > 100 µM | > 100 µM | 6.91 µM | 6.58 µM | > 100 µM | > 100 µM | > 100 µM | > 100 µM | > 100 µM | 6.79 µM | 24.2 µM | > 100 µM | 0.955 µM | 0.675 µM | 19.5 µM | 5.72 µM | 11.4 µM | 1.9 µM | 3.01 µM
9 | CC(F)(F)c1cc(F)ccc1-c1sc2cc(O)ccc2c1Oc1ccc(/C=C/C(=O)O)cc1 | 25 µM | 31.5 µM | 18.2 µM | 23.8 µM | 27.3 µM | 31.2 µM | 50 µM | 29 µM | 22.9 µM | 21.9 µM | 4.96 µM | 12.9 µM | 4.13 µM | 4.44 µM | 11.1 µM | 10.2 µM | 10.3 µM | 11.6 µM | 6.06 µM | 6.96 µM
10 | CN(C)CCOc1nc2c3cccnc3cc(-c3cccc(Cl)c3)c2c2ncccc12 | 3.48 µM | 2.73 µM | 2.7 µM | 4.5 µM | 8.42 µM | 2.84 µM | 2.41 µM | 3.2 µM | 4.91 µM | 4.5 µM | 1.76 µM | 1.09 µM | 1.05 µM | 2.08 µM | 2.04 µM | 1.45 µM | 0.488 µM | 0.905 µM | 2.15 µM | 0.968 µM
11 | CS(=O)(=O)OCCN(CCOS(C)(=O)=O)c1ccc(C=Nc2ccc3oc(=O)ccc3c2)cc1 | 31.6 µM | 2.96 µM | 37.9 µM | 41.3 µM | 47.1 µM | 3.5 µM | 15.4 µM | 53.1 µM | 19.8 µM | 29.9 µM | – | – | – | – | – | – | – | – | – | –
12 | COC(=O)[C@@H](Cc1c[nH]c2ccccc12)NC(=O)/C=C/c1ccccc1 | > 100 µM | > 100 µM | > 100 µM | 5.71 µM | 4.29 µM | > 100 µM | > 100 µM | > 100 µM | > 100 µM | > 100 µM | 3.05 µM | 3.68 µM | 3.31 µM | 2.33 µM | 0.235 µM | 3.96 µM | 3.57 µM | 7.07 µM | 3.97 µM | 3.73 µM
13 | Oc1ccc(Br)cc1/C=N/NC(=S)NC12CC3CC(CC(C3)C1)C2 | 5.84 µM | 2.78 µM | 3.49 µM | 6.5 µM | 6.58 µM | 5.05 µM | 6.81 µM | 5.89 µM | 7.83 µM | 2.88 µM | 1.86 µM | 1.33 µM | 0.734 µM | 2.52 µM | 2.35 µM | 2.32 µM | 1.89 µM | 1.81 µM | 2.37 µM | 1.22 µM
14 | CCn1c(-c2nonc2N)nc2c(C#CC(C)(C)O)nc(O[C@@H](CN)c3ccccc3)cc21 | 1.67 µM | 7.37 µM | 24.1 µM | 0.371 µM | 1.12 µM | 2.49 µM | 1.97 µM | 2.86 µM | 1.02 µM | 1.32 µM | 0.407 µM | 3.52 µM | 3.1 µM | 0.0891 µM | 0.0727 µM | 0.16 µM | 0.11 µM | 0.0163 µM | 0.361 µM | 0.14 µM
15 | CN(/N=C/c1ccnc2ccccc12)c1ccc([N+](=O)[O-])cc1[N+](=O)[O-] | > 100 µM | > 100 µM | > 100 µM | > 100 µM | > 100 µM | 74.6 µM | > 100 µM | > 100 µM | > 100 µM | > 100 µM | – | – | – | – | – | – | – | – | – | –
16 | CC(C)=CCC/C(C)=C/CC/C(=C/COP(=O)(OCc1ccc([N+](=O)[O-])o1)N(C)CCCCCl)CC=C(C)C (stereo not drawn) | 10.2 µM | 18.2 µM | 12.5 µM | > 100 µM | 36 µM | 19.2 µM | > 100 µM | 14.4 µM | 32.5 µM | 11.5 µM | 2.62 µM | 5.56 µM | 2.65 µM | 4.81 µM | 16.5 µM | 5.7 µM | 4.14 µM | 3.39 µM | 14.3 µM | 2.92 µM
17 | CC1=Nc2c([nH]c(=S)[nH]c2=O)NC(c2ccc(Cl)c(Cl)c2)C1 (stereo not drawn) | 31.3 µM | 89.6 µM | > 60.1 µM | > 100 µM | > 100 µM | 32.5 µM | > 100 µM | 40.8 µM | > 63.7 µM | 40.3 µM | – | – | – | – | – | – | – | – | – | –
